Results published in patent publication US20080286235A1, “Antimicrobials and related methods” (priority 2006, published 2008).
Converted amounts (≈) assume the structure as drawn.

Experiments:
in vitro = details: mouse
[1] = system: C3H/10T1/2 mouse embryo fibroblasts; details: for Highest Non-Cytotoxic Concentration: mouse; for LC50 value (reduces the plating efficiency to 50% of control cells) / CC50: 10T1/2 cells; for CC50: read-out: LC50 value
ringworm = assay: Cat ringworm treatment; assay type: in vivo, kittens; details: Solution A 1:16 topically three times daily for three days

Row | Compound | CC50 (in vitro) [µg/mL] | Highest Non-Cytotoxic Concentration [1] [mg/mL] | also measured
1 | CC(=O)Nc1ccc(O)cc1 [Acetaminophen] | 500 (≈ 3310 µM) | 0.05 | –
2 | CC(=O)Oc1ccccc1C(=O)O [Aspirin] | – | 0.25 | –
3 | OC1c2cc3ccc4cccc5ccc(c2C2OC2C1O)c3c45 (stereo not drawn) [BaP-anti-diol epoxide] | – | – | LC50 value (reduces the plating efficiency to 50% of control cells) [1]: 0.0755 µg/mL; CC50 [1]: 0.25 µM
4 | COC(=O)Nc1nc2cc(C(=O)c3ccc(F)cc3)ccc2[nH]1 [Flubendazole] | 0.15 (≈ 0.479 µM) | – | –
5 | COC1=CC(=O)C[C@@H](C)[C@]12Oc1c(Cl)c(OC)cc(OC)c1C2=O [Griseofulvin] | – | – | outcome of ringworm treatment (ringworm): no success
6 | CC(=O)ON(C(C)=O)c1ccc2c(c1)Cc1ccccc1-2 [N-acetoxy-acetyl aminofluorene] | – | – | LC50 value (reduces the plating efficiency to 50% of control cells) [1]: 3.99 µg/mL; CC50 [1]: 15 µM
7 | C[C@@H]1O[C@@H](O[C@H]2C[C@@H](O)[C@]3(CO)[C@H]4[C@H](O)C[C@]5(C)[C@@H](C6=CC(=O)OC6)CC[C@]5(O)[C@@H]4CC[C@]3(O)C2)[C@H](O)[C@H](O)[C@H]1O [Ouabain] | 500 (≈ 855 µM) | – | –
8 | CCOc1ccc(NC(C)=O)cc1 [Phenacetin] | 1000 (≈ 5580 µM) | 0.18 | –
